Data from PubChem BioAssay (NCI).
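Dose response: 5 concentrations. Exposure: 48 h. Format: 96-well plates. Endpoint: linear interpolation; highest concentration if not reached. Definition used: TGI = concentration required for complete inhibition of growth.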

What was measured:
Experiment in all cases: DTP human tumour cell line panel, 48 h
[1] = system: COLO 205 colon
[2] = system: HCT-15 colon
[3] = system: NCI-H522 lung
[4] = system: HOP-92 NSCLC
[5] = system: BT-549 breast
[6] = system: NCI-H226 lung
[7] = system: SW-620 colon
[8] = system: LOX IMVI melanoma
[9] = system: KM12 colon
[10] = system: SF-539 CNS
[11] = system: U251 CNS
[12] = system: SNB-19 CNS
[13] = system: HL-60(TB) leukemia
[14] = system: SF-295 CNS
[15] = system: SK-MEL-5 melanoma
[16] = system: SNB-75 CNS
[17] = system: TK-10 renal
[18] = system: EKVX NSCLC
[19] = system: SF-268 CNS
[20] = system: NCI/ADR-RES ovarian
[21] = system: A498 renal
[22] = system: OVCAR-8 ovarian
[23] = system: SR leukemia
[24] = system: MDA-MB-231 breast
[25] = system: OVCAR-4 ovarian
[26] = system: MALME-3M melanoma
[27] = system: K-562 leukemia
[28] = system: RXF 393 renal
[29] = system: PC-3 prostate
[30] = system: HS 578T breast
[31] = system: SN12C renal
[32] = system: MOLT-4 leukemia
[33] = system: MCF7 breast
[34] = system: UACC-62 melanoma
[35] = system: T-47D breast
[36] = system: UO-31 renal
[37] = system: DU-145 prostate
[38] = system: HCT-116 colon
[39] = system: CCRF-CEM leukemia
[40] = system: CAKI-1 renal
[41] = system: OVCAR-5 ovarian
[42] = system: OVCAR-3 ovarian
[43] = system: M14 melanoma
[44] = system: RPMI-8226 leukemia
[45] = system: SK-MEL-2 melanoma
[46] = system: A549 NSCLC
[47] = system: MDA-MB-435
[48] = system: NCI-H460 lung
[49] = system: IGROV1 ovarian
[50] = system: UACC-257 melanoma
[51] = system: ACHN renal
[52] = system: SK-MEL-28 melanoma
[53] = system: HCC-2998 colon
[54] = system: 786-0 renal
[55] = system: NCI-H23 lung
[56] = system: HT29 colon
[57] = system: HOP-62 NSCLC
[58] = system: SK-OV-3 ovarian

Compound: N#Cc1c(N)c2c(c(-c3ccccc3)c1-c1ccccc1)C(=O)N(NC(=S)Nc1ccccc1)C2=O
- TGI [1]: > 100 µM
- TGI [2]: > 100 µM
- TGI [3]: > 100 µM
- TGI [4]: > 100 µM
- TGI [5]: > 100 µM
- TGI [6]: > 100 µM
- TGI [7]: > 100 µM
- TGI [8]: > 100 µM
- TGI [9]: > 100 µM
- TGI [10]: > 100 µM
- TGI [11]: > 100 µM
- TGI [12]: > 100 µM
- TGI [13]: > 100 µM
- TGI [14]: > 100 µM
- TGI [15]: > 100 µM
- TGI [16]: > 100 µM
- TGI [17]: > 100 µM
- TGI [18]: > 100 µM
- TGI [19]: > 100 µM
- TGI [20]: > 100 µM
- TGI [21]: > 100 µM
- TGI [22]: > 100 µM
- TGI [23]: > 100 µM
- TGI [24]: > 100 µM
- TGI [25]: > 100 µM
- TGI [26]: > 100 µM
- TGI [27]: > 100 µM
- TGI [28]: 93.8 µM
- TGI [29]: > 100 µM
- TGI [30]: > 100 µM
- TGI [31]: > 100 µM
- TGI [32]: > 100 µM
- TGI [33]: > 100 µM
- TGI [34]: > 100 µM
- TGI [35]: > 100 µM
- TGI [36]: > 100 µM
- TGI [37]: > 100 µM
- TGI [38]: > 100 µM
- TGI [39]: > 100 µM
- TGI [40]: > 100 µM
- TGI [41]: > 100 µM
- TGI [42]: > 100 µM
- TGI [43]: > 100 µM
- TGI [44]: > 100 µM
- TGI [45]: > 100 µM
- TGI [46]: > 100 µM
- TGI [47]: > 100 µM
- TGI [48]: > 100 µM
- TGI [49]: > 100 µM
- TGI [50]: > 100 µM
- TGI [51]: > 100 µM
- TGI [52]: > 100 µM
- TGI [53]: > 100 µM
- TGI [54]: > 100 µM

Compound: Cc1ccccc1N1C(N)=C(C#N)C(C#N)(C#N)C1c1ccccc1 (stereo not given)
- TGI [1]: 33.4 µM
- TGI [2]: 35.9 µM
- TGI [3]: 32.1 µM
- TGI [4]: 35.9 µM
- TGI [5]: 28.8 µM
- TGI [55]: 38.6 µM
- TGI [6]: 38.8 µM
- TGI [7]: 31.7 µM
- TGI [8]: 32.7 µM
- TGI [9]: 32.6 µM
- TGI [10]: 37.9 µM
- TGI [56]: 34.2 µM
- TGI [11]: 31.9 µM
- TGI [12]: 41.2 µM
- TGI [13]: 44.2 µM
- TGI [14]: 68.9 µM
- TGI [15]: 30.1 µM
- TGI [16]: 46 µM
- TGI [17]: 28.4 µM
- TGI [18]: 42.8 µM
- TGI [19]: 45.7 µM
- TGI [20]: 42.2 µM
- TGI [57]: 42.5 µM
- TGI [21]: 33.7 µM
- TGI [22]: 38.4 µM
- TGI [23]: 60.4 µM
- TGI [24]: 30.8 µM
- TGI [25]: 40.9 µM
- TGI [26]: 32.6 µM
- TGI [28]: 33.9 µM
- TGI [29]: 51 µM
- TGI [30]: 58 µM
- TGI [31]: 59 µM
- TGI [32]: 39.3 µM
- TGI [33]: 42.6 µM
- TGI [34]: 37.7 µM
- TGI [35]: 31 µM
- TGI [36]: 31.2 µM
- TGI [37]: 30.8 µM
- TGI [38]: 33.6 µM
- TGI [39]: 36.7 µM
- TGI [40]: > 100 µM
- TGI [41]: 41.5 µM
- TGI [42]: 35.6 µM
- TGI [43]: 45 µM
- TGI [44]: 45.2 µM
- TGI [45]: 55.3 µM
- TGI [46]: 62.7 µM
- TGI [47]: 35.4 µM
- TGI [49]: 33.9 µM
- TGI [50]: 32 µM
- TGI [58]: 86.6 µM
- TGI [51]: 35.1 µM
- TGI [52]: 36.5 µM
- TGI [53]: 32.4 µM
- TGI [54]: 32.3 µM
